# Experimental data as given in US20090220435A1, “TIGHT JUNCTION MODULATING PEPTIDE COMPONENTS FOR ENHANCING MUCOSAL DELIVERY OF THERAPEUTIC AGENTS” (priority 2005, published 2009).
# What was measured:
# [1] = tested on: EpiAirway™ human-derived tracheal/bronchial epithelial cells; assay: Cytotoxicity (LDH assay); assay type: cell-based; conditions: for LDH15: 15 minute treatment at the peptide's optimal concentration; for LDH60: 60 minute treatment at the peptide's optimal concentration
# Protocol: The amount of cell death was assayed by measuring the loss of lactate dehydrogenase (LDH) from the cells using a CytoTox 96 Cytoxicity Assay Kit (Promega Corp., Madison, Wis.). Fifty microliters of sample was loaded into a 96-well assay plates. Fresh, cell-free culture medium was used as a blank. 50 μl of substrate solution was added to each well and the plates incubated for 30 minutes at room temperature in the dark. Following incubation, 50 μl of stop solution was added to each well and the plates read on an optical density plate reader at 490 nm.
# The amount of cell death will be assayed by measuring the loss of lactate dehydrogenase (LDH) from the cells using a CytoTox 96 Cytotoxicity Assay Kit (Promega Corp., Madison, Wis.). Fifty microliters of sample will be loaded into a 96-well assay plates. Fresh, cell-free culture medium will be used as a blank. Fifty microliters of substrate solution will be added to each well and the plates incubated for 30 minutes at room temperature in the dark. Following incubation, 50 μl of stop solution will be added to each well and the plates read on an optical density plate reader at 490 nm. The measurement of LDH release into the basolateral media indicates relative cytotoxicity of the samples. One hundred percent lysis of control inserts with 0.3% Octylphenolpoly(ethyleneglycolether)×(TritonX-100) allows LDH values to be expressed as percentage of total lysis.
# In some embodiments, The amount of cell death was assayed by measuring the release of lactate dehydrogenase (LDH) from the cells into the apical medium using a CytoTox 96 Cytotoxicity Assay Kit (Promega Corp., Madison, Wis.). One percent Octylphenolpoly (ethyleneglycolether)×(Triton X-100™) diluted in phosphate buffered saline (PBS) causes 100% lysis in cultured cells and served herein as a positive control for the LDH assay. Following the one hour incubation period with a test formulation (refer to Table 24 of Example 25 for details of test formulations), the total liquid volume of each insert was brought to a final volume of 200 μl with culture medium. The apical medium was then mixed by pipetting four times with a multichannel pipette set to a 100 μl volume. After mixing, a 100 μl sample from the apical side of each insert was transferred to a new 96-well plate. The apical media samples were sealed with a plate sealer and stored at room temperature for same day analysis or stored overnight at 4° C. for analysis the next day. To measure LDH levels, 5 μl of the 100 μl apical media sample was diluted in 45 μl DPBS in a new 96-well plate. Fresh, cell-free culture medium will be used as a blank. Fifty microliters of substrate solution was added to each well and incubated for 30 minutes at room temperature away from direct light. Following the 30 minute incubation, 50 μl of stop solution was added to each well. Optical density (OD) was measured at 490 nm with a uQuant absorbance plate reader from Biotek Instruments. The measurement of LDH release into the apical media indicates relative cytotoxicity of the samples. Percent cytotoxicity for each test formulation was calculated by subtracting the measured absorbance of the PBS control (basal level of LDH release) from the measured absorbance of the individual test formulation and then dividing that value by the measured absorbance for the 1% Triton X-100™ positive control, multiplied by 100.
# An LDH assay was used to assess the cytotoxicity of the treatments. The LDH level was determined by CytoTox96 Non-Radioactive Cytotoxic Assay (Promega, Madison, Wis.) following the manufacturer's protocol. For basal-lateral LDH levels, triplicates of 50 ul of the basal medium were used to determine the LDH level. For apical LDH level, 150 ul of the diluted apical sample was removed by adding 150 ul of Epi-CM to the apical chamber, the medium was mixed by pipeting up and down, and 150 ul medium was removed and diluted 2× (for a final 8-fold dilution) for assay in triplicates of 50 ul.
# [2] = tested on: EpiAirway™ human-derived tracheal/bronchial epithelial cells; assay: Transepithelial electrical resistance (TER) across EpiAirway epithelial cell layer; assay type: cell-based
# [3] = Chemical stability of PN159 (stability indicating HPLC); assay type: physicochemical; conditions: pH 9 and/or elevated temperature, 40 to 50° C.
# Protocol: The chemical stability of the PN159 was determined under therapeutically relevant storage conditions. A stability indicating HPLC method was employed. Solutions (50 mM) were stored at various pH (4.0, 7.3, and 9.0) and temperature (5° C., 25° C., 35° C., 40° C., and 50° C.) conditions. Samples at pH 4 contained 10 mM citrate buffer. Samples at pH 7.3 and 9.0 contained 10 mM phosphate buffer. Representative storage stability data (including the Arrhenius plot) are depicted in FIG. 6. […] For example, at 5° C. and pH 4.0 or pH7.3, there was essentially 100% recovery of PN159 for six month storage. […] The pH range of 4.0 to 7.3 and the temperature range of refrigerated to ambient are most relevant for intranasal formulations.
# The chemical stability of the PN159 was determined under therapeutically relevant storage conditions. A stability indicating HPLC method was employed. Solutions (50 mM) were stored at various pH (4.0, 7.3, and 9.0) and temperature (5° C., 25° C., 35° C., 40° C., and 50° C.) conditions. Samples at pH 4 contained 10 mM citrate buffer. Samples at pH 7.3 and 9.0 contained 10 mM phosphate buffer. […] For example, at 5° C. and pH 4.0 or pH 7.3, there was essentially 100% recovery of PN159 for six month storage. […]
# The chemical stability of the PN159 was determined under therapeutically relevant storage conditions. […]
# [4] = tested on: EpiAirway™ human-derived tracheal/bronchial epithelial cells; assay: TER recovery after peptide treatment; assay type: cell-based; conditions: among all TJMPs tested
SMILES,"% Triton-X LDH Release ([1]; 25 μM, 1 h) [%]",cytotoxicity (LDH) ([1]; 25-100 μM PN159 with 2 mg/ml PTH),LDH15 [1],LDH60 [1],TER reduction ([2]; 1 μM peptide) [%],TER reduction ([2]; 2.5 μM peptide) [%],TER reduction ([2]; 10 μM peptide) [%],TER reduction ([2]; 25 μM peptide) [%],"% T0 TER ([2]; 25 μM, 1 h, pH 7) [%]","TER in the presence of galantamine ([2]; 40 mg/ml galantamine lactate, 25, 50, 100 μM PN159, pH 5.0)","TER reduction ([2]; PN159 25, 50, 100 μM with 2 mg/ml PTH, pH 4.5)",Relative TER Decrease ([2]; relative to PN159 = 1.0),chemical stability [3],TER reduction ([2]; 100 μM peptide) [%],TER recovery time [4]
CC(C)C[C@H](NC(=O)[C@H](C)NC(=O)[C@H](CCCCN)NC(=O)[C@H](CC(C)C)NC(=O)[C@H](C)NC(=O)[C@H](CC(C)C)NC(=O)[C@H](CCCCN)NC(=O)[C@H](CC(C)C)NC(=O)[C@H](C)NC(=O)[C@H](CC(C)C)NC(=O)[C@@H](N)CCCCN)C(=O)N[C@@H](CCCCN)C(=O)N[C@@H](C)C(=O)N[C@@H](C)C(=O)N[C@@H](CC(C)C)C(=O)N[C@@H](CCCCN)C(=O)N[C@@H](CC(C)C)C(=O)N[C@@H](C)C(N)=O [PN159],31,no significant cytotoxicity,0.007,0.002,54,79,89,94,7,reduced TER,more than 80%,1.0,rapid deterioration,–,–
CC[C@H](C)[C@H](NC(=O)[C@H](CCCCN)NC(=O)[C@H](CCCCN)NC(=O)[C@H](C)NC(=O)[C@H](CC(C)C)NC(=O)[C@H](C)NC(=O)[C@H](C)NC(=O)[C@H](CC(C)C)NC(=O)[C@H](C)NC(=O)[C@H](CCCCN)NC(=O)[C@H](CC(C)C)NC(=O)[C@H](CC(N)=O)NC(=O)[C@@H](NC(=O)[C@H](CCCCN)NC(=O)CNC(=O)[C@H](CC(C)C)NC(=O)[C@H](CC(C)C)NC(=O)[C@H](Cc1ccc(O)cc1)NC(=O)CNC(=O)[C@H](C)NC(=O)[C@H](CO)NC(=O)[C@H](CC(N)=O)NC(=O)[C@H](CC(C)C)NC(=O)[C@@H](NC(=O)[C@H](Cc1c[nH]c2ccccc12)NC(=O)CN)[C@@H](C)O)[C@@H](C)CC)C(=O)N[C@@H](CC(C)C)C(N)=O [PN161],–,–,0.0017,0.01,–,11,43,73,–,–,–,–,–,84,fastest recovery time
